Data published in US20100056620A1, “ACTIVE COMPOUND COMBINATIONS WITH INSECTICIDAL AND ACARICIDAL PROPERTIES” (Bayer CropScience AG, priority 2006, published 2010).

Legend:
Assay type in all cases: in vivo
[1] = test system: red spider Panonychus ulmi (PANOUL); assay: Example A: apple tree field test against red spider, count of adult spider mites on 25 leaves; conditions: etoxazole 0.05%, I-1-b 0.04%; for PANOUL (number of adult spider mites on 25 leaves): apple 'Braeburn'; for Prey/Predator ratio: PANOUL/AMBLAN
Description: (§1) In 4 replications, in each case five about 10-year-old apple trees (crown height about 2.5 m) of the cultivar “Braeburn” are treated against the red spider Panonychus ulmi (PANOUL). Here, the active compound (I-b-1) (240SC) and the commercial standard etoxazole (110 SC) are applied at the stated application rates in the presence of the predatory mite Amblyseius andersoni (AMBLAN) using a pressure-operated knapsack spray. The water application rate is 400 l/ha. Two applications are carried out at an interval of 42 days.
(§2) Evaluation is carried out 4 days prior to and 6, 29, 43 and 63 days after the 1st treatment by counting the number of adult spider mites and predatory mites on 25 leaves and establishing a prey/predator ratio as a measure for the supporting action of the beneficial species.

[2] = test system: predatory mite Amblyseius andersoni (AMBLAN); assay: Example A: apple tree field test, count of predatory mites on 25 leaves; conditions: apple 'Braeburn', etoxazole 0.05%, I-1-b 0.04%
Description: as §1, §2

[3] = test system: fruit tree spider mite (Panonychus ulmi); assay: Example B: Panonychus ulmi test on plum cuttings, with or without added predatory mites; conditions: 20 ppm, active compound alone, spray
From the text: The expected activity for a given combination of two active compounds can be calculated (cf. Colby, S. R.; “Calculating Synergistic and Antagonistic Responses of Herbicide Combinations”, Weeds 15, pages 20-22, 1967) as follows:
If • X is the kill rate, expressed in % of the untreated control, when employing active compound A at an application rate of in ppm or g/ha, • Y is the kill rate, expressed in % of the untreated control, when employing active compound B at an application rate of n ppm or g/ha, • E is the kill rate, expressed in % of the untreated control, when employing active compounds A and B at application rates of m and n ppm or g/ha, • then
If the actual insecticidal kill rate is higher than the calculated one, the kill rates of the combination are superadditive, i.e. a synergistic effect is present. In this case, the kill rate that is actually observed has to be higher than the value, calculated using the formula above, for the expected kill rate (E).
To produce a suitable preparation of active compound, 1 part by weight of active compound is mixed with the stated amounts of solvent and emulsifier, and the concentrate is diluted with emulsifier-containing water to the desired concentration. […]
After the desired period of time, the kill of the pest in % is determined. […] The determined kill ratios are entered into Colby's formula.

[4] = 6 d after 1st treatment, AMBLAN present
[5] = 29 d after 1st treatment, AMBLAN present
[6] = 43 d after 1st treatment, two applications 42 days apart
[7] = 63 d after 1st treatment, two applications 42 days apart
[8] = −4 d (4 days prior to 1st treatment)
[9] = −4 d (4 days prior to 1st treatment), AMBLAN present

CCOc1cc(C(C)(C)C)ccc1C1COC(c2c(F)cccc2F)=N1 (stereo not shown) [etoxazole, reference compound]
PANOUL (number of adult spider mites on 25 leaves) [1, 4]: 10
PANOUL (number of adult spider mites on 25 leaves) [1, 5]: 221
PANOUL (number of adult spider mites on 25 leaves) [1, 6]: 203
PANOUL (number of adult spider mites on 25 leaves) [1, 7]: 87
Prey/Predator ratio ([1]; 6 d after 1st treatment): 2.0
Prey/Predator ratio ([1]; 29 d after 1st treatment): 12.3
Prey/Predator ratio ([1]; 43 d after 1st treatment): 3.9
Prey/Predator ratio ([1]; 63 d after 1st treatment): 1.01
Prey/Predator ratio [1, 8]: 25
PANOUL (number of adult spider mites on 25 leaves) [1, 9]: 25
AMBLAN (number of predatory mites on 25 leaves) ([2]; 6 d after 1st treatment): 5
AMBLAN (number of predatory mites on 25 leaves) ([2]; 29 d after 1st treatment): 18
AMBLAN (number of predatory mites on 25 leaves) [2, 6]: 52
AMBLAN (number of predatory mites on 25 leaves) [2, 7]: 86
AMBLAN (number of predatory mites on 25 leaves) [2, 8]: 1

CCC(C)(C)C(=O)OC1=C(c2ccc(Cl)cc2Cl)C(=O)OC12CCCCC2 [I-b-1, spirodiclofen]
PANOUL (number of adult spider mites on 25 leaves) [1, 4]: 13
PANOUL (number of adult spider mites on 25 leaves) [1, 5]: 111
PANOUL (number of adult spider mites on 25 leaves) [1, 6]: 52
PANOUL (number of adult spider mites on 25 leaves) [1, 7]: 0
Prey/Predator ratio ([1]; 6 d after 1st treatment): 4.3
Prey/Predator ratio ([1]; 29 d after 1st treatment): 1.9
Prey/Predator ratio ([1]; 43 d after 1st treatment): 0.5
Prey/Predator ratio ([1]; 63 d after 1st treatment): 0.00
Prey/Predator ratio [1, 8]: 18
PANOUL (number of adult spider mites on 25 leaves) [1, 9]: 36
Kill in % after 7 d [3]: 70%
AMBLAN (number of predatory mites on 25 leaves) ([2]; 6 d after 1st treatment): 3
AMBLAN (number of predatory mites on 25 leaves) ([2]; 29 d after 1st treatment): 57
AMBLAN (number of predatory mites on 25 leaves) [2, 6]: 100
AMBLAN (number of predatory mites on 25 leaves) [2, 7]: 62
AMBLAN (number of predatory mites on 25 leaves) [2, 8]: 2
